According to ChEMBL document CHEMBL1201862, “PubChem BioAssay data set” (2004):
The source made the active and inactive calls.

Assays:
[1] = target: T1, Caspase-7 (Homo sapiens, UniProt P55210); assay: procaspase-7 activators, dose response, dual procaspase-3/-7 activator project, biochemical, absorbance, human (AID 504330)
T1 sequence (P55210 whole entry): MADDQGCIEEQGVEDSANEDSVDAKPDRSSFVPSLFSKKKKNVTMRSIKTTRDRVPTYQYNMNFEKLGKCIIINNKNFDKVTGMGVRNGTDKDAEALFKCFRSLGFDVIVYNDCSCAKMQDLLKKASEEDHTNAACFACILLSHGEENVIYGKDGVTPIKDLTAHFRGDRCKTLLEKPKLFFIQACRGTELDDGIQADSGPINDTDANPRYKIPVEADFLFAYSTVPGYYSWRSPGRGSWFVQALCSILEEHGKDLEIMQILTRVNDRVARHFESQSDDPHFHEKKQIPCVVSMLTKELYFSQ

[2] = target: T2, Caspase-3 (Homo sapiens, UniProt P42574); assay: procaspase-3 activation potency of dual hits, dose response, counter-screen for dual procaspase-3/7 activator project, biochemical, absorbance, PC-3 D3A mutant (AID 504328)
T2 sequence (P42574 whole entry): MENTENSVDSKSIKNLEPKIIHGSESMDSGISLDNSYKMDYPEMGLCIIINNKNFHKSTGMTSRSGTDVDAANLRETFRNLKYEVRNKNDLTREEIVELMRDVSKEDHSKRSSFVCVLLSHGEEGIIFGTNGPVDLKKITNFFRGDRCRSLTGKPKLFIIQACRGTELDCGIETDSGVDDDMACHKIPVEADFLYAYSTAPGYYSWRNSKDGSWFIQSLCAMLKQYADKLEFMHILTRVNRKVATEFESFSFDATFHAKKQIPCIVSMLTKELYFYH

[3] = target: T3, Estrogen receptor (Homo sapiens, UniProt P03372); assay: potentiators of ERα–SRC-1 coactivator binding, dose response, biochemical, TR-FRET, ERα LBD (AID 737)
T3 sequence (P03372 whole entry): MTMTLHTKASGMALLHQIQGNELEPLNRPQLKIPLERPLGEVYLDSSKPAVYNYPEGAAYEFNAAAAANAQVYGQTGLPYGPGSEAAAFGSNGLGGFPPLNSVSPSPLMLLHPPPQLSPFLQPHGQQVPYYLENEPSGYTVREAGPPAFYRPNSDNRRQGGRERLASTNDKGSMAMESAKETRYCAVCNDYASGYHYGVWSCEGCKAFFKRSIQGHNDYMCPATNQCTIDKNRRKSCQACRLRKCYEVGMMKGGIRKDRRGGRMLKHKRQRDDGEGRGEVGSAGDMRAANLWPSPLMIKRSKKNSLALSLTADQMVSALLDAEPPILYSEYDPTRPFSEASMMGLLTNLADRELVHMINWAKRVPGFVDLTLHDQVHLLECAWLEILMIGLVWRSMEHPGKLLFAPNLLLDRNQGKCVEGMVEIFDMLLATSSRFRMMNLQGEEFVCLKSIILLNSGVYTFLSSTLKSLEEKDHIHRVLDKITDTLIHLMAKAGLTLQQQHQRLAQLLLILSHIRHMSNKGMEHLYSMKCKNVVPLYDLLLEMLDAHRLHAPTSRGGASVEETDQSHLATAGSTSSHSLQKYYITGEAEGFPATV

[4] = target: Epstein-Barr nuclear antigen 1 (Epstein-Barr virus (strain B95-8) (HHV-4) (Human herpesvirus 4), UniProt P03211); assay: EBNA-1 inhibitors, dose response, biochemical, fluorescence polarization, 1536-well (AID 2381); set-up: species or system human gammaherpesvirus 4;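 further: fluorescence polarization of a Cy5 DNA probe bound by EBNA-1 protein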
[5] = target: Lytic switch protein BZLF1 (Epstein-Barr virus (strain B95-8) (HHV-4) (Human herpesvirus 4), UniProt P03206); assay: EBV ZTA inhibitors, dose response, counter-screen for EBNA-1 inhibitor project, biochemical, fluorescence polarization, Epstein-Barr virus, 1536-well (AID 2377); set-up: species or system human gammaherpesvirus 4;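 further: fluorescence polarization of Cy5-labelled ZRE DNA probe bound by purified Zta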
[6] = A Cell Based Secondary Assay To Explore Cytotoxicity of Compounds that Sensitize Mycobacterium Tuberculosis to Beta-Lactam Antibiotics.; assay type: functional
[7] = Luminescence Cell-Based Dose Retest to Confirm Inhibitors of Cancer Stem Cells. [Related pubchem assays (depositor defined):AID2717, AID2721]; assay type: functional; details: Homo sapiens
[8] = THP-1 cell cytotoxicity, dose response, cytotoxicity control for Vif-APOBEC3G degradation inhibitor project, THP-1 cells (AID 1117359); assay type: functional; details: Human immunodeficiency virus 1, THP-1
[9] = microbe, parasite or virus in culture; assay type: functional; details: Mycobacterium tuberculosis
[10] = target: Neurotensin receptor type 1 (Homo sapiens, UniProt P30989); assay type: functional;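 further: Image-based confirmatory dose-response assay measuring agonist activity at NTR1; NTR1-expressing U2OS osteosarcoma cells imaged for beta-arrestin GFP spot formation; agonist potency where compounds increase beta-arrestin recruitment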
[11] = tested on: HeLa; assay: Cytotoxicity counterscreen assay for transcriptional activators of heat shock protein 70 (Hsp70). [Related pubchem assays: 1203, 1252 ]; assay type: functional; details: Homo sapiens;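 further: cells exposed to compound for 16 hours before readout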
[12] = target: Cytochrome P450 2D6 (Homo sapiens, UniProt P10635); assay: qHTS Assay for Inhibitors and Substrates of Cytochrome P450 2D6. [Related pubchem assays: 410 ]; assay type: ADME; details: read-out: Potency
[13] = target: Cytochrome P450 3A4 (Homo sapiens, UniProt P08684); details: Potency;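 further: confirmatory qHTS run detecting inhibitors and substrates of CYP3A4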
[14] = target: T4, Leucine aminopeptidase (Plasmodium falciparum 3D7, UniProt Q8IL11); assay: P. falciparum M17LAP inhibitors, primary screen, biochemical, fluorogenic H-Leu-NHMec substrate, 1536-well (AID 1619); assay type: functional
T4 sequence (Q8IL11 whole entry): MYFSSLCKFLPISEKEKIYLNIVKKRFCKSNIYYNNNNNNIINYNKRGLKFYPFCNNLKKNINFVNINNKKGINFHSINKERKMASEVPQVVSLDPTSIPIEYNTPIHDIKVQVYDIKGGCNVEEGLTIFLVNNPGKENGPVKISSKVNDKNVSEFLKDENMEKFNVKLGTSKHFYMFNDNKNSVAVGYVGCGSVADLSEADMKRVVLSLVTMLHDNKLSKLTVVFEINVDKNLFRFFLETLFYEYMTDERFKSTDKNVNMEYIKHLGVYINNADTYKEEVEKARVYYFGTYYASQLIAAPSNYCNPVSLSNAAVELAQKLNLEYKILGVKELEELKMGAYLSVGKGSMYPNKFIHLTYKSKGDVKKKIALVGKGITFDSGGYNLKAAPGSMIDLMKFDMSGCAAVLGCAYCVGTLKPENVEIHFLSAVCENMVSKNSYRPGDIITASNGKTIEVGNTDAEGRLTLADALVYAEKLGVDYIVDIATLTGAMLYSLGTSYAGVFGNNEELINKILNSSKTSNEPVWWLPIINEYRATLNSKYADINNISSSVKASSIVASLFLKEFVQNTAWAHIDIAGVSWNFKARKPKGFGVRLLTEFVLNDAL

[15] = target: Procathepsin L (Homo sapiens, UniProt P07711); assay: cathepsin L inhibitors, dose response, counter-screen for M1/M17 aminopeptidase inhibitor project, biochemical, QFRET, 1536-well (AID 2214)
[16] = target: T5, Aspartyl aminopeptidase (Plasmodium falciparum 3D7, UniProt Q8I2J3); assay: Counterscreen for inhibitors of M1 and M17 aminopeptidases: QFRET-based biochemical high throughput dose response assay for inhibitors of the Plasmodium falciparum M18 Aspartyl Aminopeptidase (PFM18AAP). [Related PubChem assays: 1619 (Screening assay (M17LAP inhibitors).), 1445 (Screening assay (M1AAP inhibitors).)]
T5 sequence (Q8I2J3 whole entry): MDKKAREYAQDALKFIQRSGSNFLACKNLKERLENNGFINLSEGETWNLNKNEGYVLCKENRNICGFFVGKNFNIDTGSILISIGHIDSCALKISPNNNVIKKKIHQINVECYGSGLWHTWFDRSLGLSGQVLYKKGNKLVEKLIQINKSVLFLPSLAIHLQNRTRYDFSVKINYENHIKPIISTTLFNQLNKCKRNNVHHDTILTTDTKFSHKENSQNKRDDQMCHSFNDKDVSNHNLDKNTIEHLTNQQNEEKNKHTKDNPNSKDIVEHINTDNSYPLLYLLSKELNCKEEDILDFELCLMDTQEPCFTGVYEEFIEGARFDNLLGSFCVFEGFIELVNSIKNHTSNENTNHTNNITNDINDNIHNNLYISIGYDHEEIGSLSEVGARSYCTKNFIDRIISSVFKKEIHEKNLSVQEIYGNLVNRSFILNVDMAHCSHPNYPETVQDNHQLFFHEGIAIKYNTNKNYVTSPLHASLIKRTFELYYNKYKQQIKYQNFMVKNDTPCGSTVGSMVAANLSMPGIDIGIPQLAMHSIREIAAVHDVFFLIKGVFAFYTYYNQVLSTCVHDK

[17] = target: Delta-type opioid receptor (Homo sapiens, UniProt P41143); assay: SAR Analysis of Antagonists of the DOR Receptor using an Image-Based Assay - Set 3. [Related pubchem assays (depositor defined):AID1777, AID1785]; assay type: functional;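 further: U2OS cells expressing DOR1 and beta-arrestin GFP stimulated with 100 nM SNC80; imaging of GFP-tagged beta-arrestin moving into spots after receptor activation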
[18] = target: Mu-type opioid receptor (Homo sapiens, UniProt P35372); assay: SAR Analysis of Antagonists of the MOR Receptor using an Image-Based Assay - Set 3. [Related pubchem assays (depositor defined):AID1777, AID1785, AID1786, AID1966, AID2133, AID2136, AID2284, AID2285, AID2420]; assay type: functional
[19] = target: T6, Kappa-type opioid receptor (Homo sapiens, UniProt P41145); assay: SAR analysis of Antagonists of the Kappa Opioid Receptor (KOR) using an Image-Based Assay - Set 3. [Related pubchem assays (depositor defined):AID1777, AID1785]; assay type: functional
[20] = target: T6, Kappa-type opioid receptor; assay: SAR analysis of small molecule antagonists of the kappa opioid receptor via a luminescent beta-arrestin assay - Set 3. [Related pubchem assays (depositor defined):AID1777, AID1778, AID1785, AID1786, AID1966, AID2133, AID2136, AID2285, AID2495]; assay type: functional
[21] = target: DNA dC->dU-editing enzyme APOBEC-3A (Homo sapiens, UniProt P31941); assay: APOBEC3A DNA deaminase inhibitors, dose response, biochemical (AID 504722); assay type: functional
[22] = target: Large T antigen (Simian virus 40, UniProt P03070); assay type: functional, Betapolyomavirus macacae;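 further: Confirmatory-stage PubChem screen for compounds that inhibit SV40 T antigen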
[23] = target: DNA dC->dU-editing enzyme APOBEC-3G (Homo sapiens, UniProt Q9HC16); assay: Dose Response confirmation of small molecule APOBEC3G DNA Deaminase Inhibitors via a fluorescence-based single-stranded DNA deaminase assay. [Related pubchem assays (depositor defined):AID493012, AID493028]; assay type: functional
[24] = target: T7, Bcl-2-like protein 10 (Homo sapiens, UniProt Q9HD36); assay: displacers of TR3 peptide from Bcl-B, primary screen, selectivity assay for Bfl-1 inhibitor project, biochemical, fluorescence polarization, FITC-TR3 peptide (AID 748);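 further: fluorescence polarization from a fluorescein-labelled TR3 peptide binding purified Bcl-B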
T7 sequence (Q9HD36 whole entry): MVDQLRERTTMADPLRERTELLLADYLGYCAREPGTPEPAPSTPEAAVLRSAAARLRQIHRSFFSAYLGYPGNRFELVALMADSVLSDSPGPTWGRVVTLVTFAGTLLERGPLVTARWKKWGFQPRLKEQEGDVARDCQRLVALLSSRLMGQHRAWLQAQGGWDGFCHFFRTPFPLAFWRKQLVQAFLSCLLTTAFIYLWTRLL

[25] = inhibitors of firefly luciferase expression or activity, dose response, H4 neuroglioma cells, luminescence (AID 1990); assay type: functional, cell-based
[26] = Luminescence Cell-Based Dose Response HTS to Identify Inhibitors of 5'UTR Stem-Loop Driven Prion Protein mRNA Translation in H4 Neuroglioblastoma Cells. [Related pubchem assays: 1827 (Project Summary), 1813 (Primary HTS)]; assay type: functional
[27] = inhibitors of SNCA 5'UTR-driven reporter translation, confirmation, H4 neuroglioma cells, luminescence (AID 1988); assay type: functional, cell-based

C=CCNC1=C(Cl)C(=O)N(c2cccc(Cl)c2Cl)C1=O
EC50 [1]: > 85.3 µM (inactive) | EC50 [2]: > 85.3 µM (inactive)

COc1nc(-c2ccc(Cl)cc2)ccc1-c1noc(-c2ccco2)n1
EC50 [3]: 10.9 µM (active)

COc1ccc2oc(C(=O)OCC(=O)Nc3cc(S(=O)(=O)N4CCOCC4)ccc3C)c(C)c2c1
IC50 [4]: 5.76 µM (active) | IC50 [5]: > 111 µM (not active)

Cc1ccc(/C=C2/SC(=S)N(CC(=O)Nc3ncc(Cc4ccc(C)cc4)s3)C2=O)cc1
CC50 [6]: 37.9 µM (active)

O=C(O)CCn1ccnc1-c1ccccc1
EC50 [3]: 12.5 µM (not active)

CC(C)c1ccc(N2C(=O)NC(=O)/C(=C\C=C\c3ccco3)C2=O)cc1
AC50 [7]: 1.23 µM (active) | CC50 [8]: 37.8 µM (active) | CC50 [9]: 23.8 µM (active) | EC50 [10]: 19 µM (active)

O=C(NCC1COc2ccccc2O1)C1CCCN(S(=O)(=O)c2c[nH]cn2)C1 (configuration not stated)
CC50 [11]: > 99 µM (not active)

CC1Cc2c(-c3ccccc3)nc3c(c2CO1)CN(CCOc1ccccc1)CC3 (configuration not stated)
AC50 [12]: 5.01 µM (inconclusive) | AC50 [13]: 3.98 µM (inconclusive)

COc1ccc(C(C)(C)C)cc1NC(=O)C1CC=CCC1C(=O)O (configuration not stated)
IC50 [14]: 3.05 µM (active) | IC50 [15]: > 59.6 µM (not active) | IC50 [16]: > 73.5 µM (not active)

COC(=O)C/C=C1\c2ccccc2C(OC)C1C (configuration not stated)
AC50 [12]: 0.0794 µM (inconclusive)

Cc1cccc(N2CCN(CCNC(=O)Cn3c(=O)c4cccn4c4cccnc43)CC2)c1C
IC50 [17]: > 32 µM (inactive) | IC50 [18]: 6.33 µM (active) | IC50 [19]: > 32 µM (inactive) | IC50 [20]: > 20 µM (inactive)

Cc1ccc(/C=N/n2c(S)nnc2-c2ccco2)cc1
IC50 [21]: > 100 µM (inactive) | IC50 [22]: 33.6 µM (active) | IC50 [23]: 3.02 µM (active)

COc1ccc(/C=C/C(=O)NCC(=O)N/N=C/c2cc(Br)ccc2OCc2ccccc2)cc1
CC50 [6]: > 40 µM (active)

COC(=O)c1cccc(NC(=O)CSc2nc(C)cc(O)n2)c1
IC50 [14]: 7.51 µM (active) | IC50 [15]: > 59.6 µM (not active) | IC50 [24]: 56.8 µM (inactive) | IC50 [16]: > 73.5 µM (not active)

CCn1nnc(-c2ccccc2NC(=O)c2cccc(-n3cnnn3)c2)n1
EC50 [25]: 22.5 µM (active) | EC50 [26]: 14.9 µM (active) | EC50 [27]: > 120 µM (not active) | IC50 [4]: 13.5 µM (not active) | IC50 [5]: > 111 µM (not active)

Cc1cc(-c2nnc(S)n2/N=C/c2cccc([N+](=O)[O-])c2)[nH]n1
IC50 [21]: > 100 µM (inactive) | IC50 [23]: 3.68 µM (active)
